Holding throughout (type): binding
Assay [1] deals with T1, PDZ protein (GST-PDZ fusion) (Homo sapiens, UniProt O15018).
T1 construct: made in house; host or cells: E. coli (DH5alpha, BL21 or JM109)
Briefly: G' assay (10 uM PL peptide), results of TABLE 7 and TABLE 12. To be noted: PDZ AIPC, PDZ Domain 1. The method in brief:
(§1)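 Biotin-PL peptide (N-term label), 10 uM vs GST-PDZ; protein 5 ug/ml by default. A450 nm binned: 1 = 0-1, 2 = 1-2, 3 = 2-3, 4 = 3-4, 5 = >4 on >2 repeats, 0 = no binding.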

The target of assay [2] is T2, PDZ protein (GST-PDZ fusion) (Homo sapiens, UniProt Q86UL8).
T2 construct: made in house; host or cells: E. coli (DH5alpha, BL21 or JM109)
T2 sequence (Q86UL8 whole entry, the tested form may be a part): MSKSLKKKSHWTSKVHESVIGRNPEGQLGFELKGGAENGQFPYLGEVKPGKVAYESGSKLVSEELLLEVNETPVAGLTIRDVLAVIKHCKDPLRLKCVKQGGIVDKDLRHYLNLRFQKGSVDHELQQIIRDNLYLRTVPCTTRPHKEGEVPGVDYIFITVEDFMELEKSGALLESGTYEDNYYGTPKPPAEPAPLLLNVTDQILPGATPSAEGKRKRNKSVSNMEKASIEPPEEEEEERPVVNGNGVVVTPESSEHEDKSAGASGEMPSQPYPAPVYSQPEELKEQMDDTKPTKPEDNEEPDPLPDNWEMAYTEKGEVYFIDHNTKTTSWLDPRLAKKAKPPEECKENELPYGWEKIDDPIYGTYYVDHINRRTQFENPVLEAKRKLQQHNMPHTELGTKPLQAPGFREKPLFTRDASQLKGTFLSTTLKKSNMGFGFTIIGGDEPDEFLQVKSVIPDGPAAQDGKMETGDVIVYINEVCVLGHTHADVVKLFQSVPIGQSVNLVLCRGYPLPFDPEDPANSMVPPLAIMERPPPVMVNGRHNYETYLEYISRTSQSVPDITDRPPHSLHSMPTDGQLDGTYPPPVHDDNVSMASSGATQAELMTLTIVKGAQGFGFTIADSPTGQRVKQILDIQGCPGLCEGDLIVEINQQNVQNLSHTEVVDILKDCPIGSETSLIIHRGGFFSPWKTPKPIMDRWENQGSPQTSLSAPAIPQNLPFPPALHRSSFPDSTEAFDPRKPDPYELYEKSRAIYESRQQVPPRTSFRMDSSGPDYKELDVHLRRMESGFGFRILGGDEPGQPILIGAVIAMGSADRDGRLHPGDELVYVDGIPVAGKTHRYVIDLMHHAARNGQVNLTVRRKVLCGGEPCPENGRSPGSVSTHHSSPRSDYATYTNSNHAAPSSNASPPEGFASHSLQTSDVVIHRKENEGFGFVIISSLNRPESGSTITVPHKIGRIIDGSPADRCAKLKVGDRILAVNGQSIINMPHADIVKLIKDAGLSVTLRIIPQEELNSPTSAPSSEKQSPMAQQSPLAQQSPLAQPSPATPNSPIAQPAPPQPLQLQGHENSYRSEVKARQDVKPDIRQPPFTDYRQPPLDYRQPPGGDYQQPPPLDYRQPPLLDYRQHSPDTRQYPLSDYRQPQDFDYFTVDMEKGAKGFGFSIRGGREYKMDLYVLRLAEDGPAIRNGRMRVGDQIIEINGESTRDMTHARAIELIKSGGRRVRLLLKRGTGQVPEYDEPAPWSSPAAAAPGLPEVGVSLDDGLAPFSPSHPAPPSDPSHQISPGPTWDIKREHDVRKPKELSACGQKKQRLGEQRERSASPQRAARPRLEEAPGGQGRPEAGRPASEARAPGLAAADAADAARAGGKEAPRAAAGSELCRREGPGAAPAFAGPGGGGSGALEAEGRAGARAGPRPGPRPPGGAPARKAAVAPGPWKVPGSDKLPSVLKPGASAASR
The description is as above. To be noted: PDZ Atrophin-1 Inter. Prot., PDZ Domain 5. The method in brief: as §1

The target of assay [3] is T3, PDZ protein (GST-PDZ fusion) (Homo sapiens, UniProt Q12959).
T3 construct: made in house; host or cells: E. coli (DH5alpha, BL21 or JM109)
T3 sequence (Q12959 whole entry, the tested form may be a part): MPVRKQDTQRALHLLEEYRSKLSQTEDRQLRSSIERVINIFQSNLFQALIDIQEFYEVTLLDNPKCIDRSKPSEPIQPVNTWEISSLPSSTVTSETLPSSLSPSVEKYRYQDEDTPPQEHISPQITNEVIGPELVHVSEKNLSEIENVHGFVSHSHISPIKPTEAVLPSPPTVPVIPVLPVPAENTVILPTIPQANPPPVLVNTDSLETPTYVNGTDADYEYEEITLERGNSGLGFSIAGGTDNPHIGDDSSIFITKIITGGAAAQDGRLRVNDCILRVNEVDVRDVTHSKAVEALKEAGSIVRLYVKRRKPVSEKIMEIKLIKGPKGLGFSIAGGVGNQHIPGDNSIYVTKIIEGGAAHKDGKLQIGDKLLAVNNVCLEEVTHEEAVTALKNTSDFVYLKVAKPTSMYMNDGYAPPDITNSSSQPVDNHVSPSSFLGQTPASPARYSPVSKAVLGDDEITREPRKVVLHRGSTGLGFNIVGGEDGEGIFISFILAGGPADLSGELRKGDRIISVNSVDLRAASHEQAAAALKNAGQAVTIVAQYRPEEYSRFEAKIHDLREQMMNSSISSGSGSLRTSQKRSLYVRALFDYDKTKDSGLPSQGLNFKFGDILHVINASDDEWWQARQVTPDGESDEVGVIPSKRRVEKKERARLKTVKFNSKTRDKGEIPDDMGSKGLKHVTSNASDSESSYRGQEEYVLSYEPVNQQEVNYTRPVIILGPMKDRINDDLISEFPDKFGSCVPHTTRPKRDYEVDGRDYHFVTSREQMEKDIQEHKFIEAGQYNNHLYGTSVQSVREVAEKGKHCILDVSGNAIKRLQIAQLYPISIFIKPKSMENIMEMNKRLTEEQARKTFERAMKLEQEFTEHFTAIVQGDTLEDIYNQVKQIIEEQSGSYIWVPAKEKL
The assay is described as above. The method in brief:
as §1

Assay [4] concerns the target T4, PDZ protein (GST-PDZ fusion) (Homo sapiens, UniProt Q8NI35).
T4 construct: made in house; host or cells: E. coli (DH5alpha, BL21 or JM109)
Described as above. To be noted: PDZ INADL. The method in brief:
as §1

Assay [5] has as its target T5, PDZ protein (GST-PDZ fusion) (Homo sapiens, UniProt Q14160).
T5 construct: made in house; host or cells: E. coli (DH5alpha, BL21 or JM109)
The description is as above. The method, boiled down: as §1

Assay [6] addresses T6, PDZ protein (GST-PDZ fusion) (Homo sapiens, UniProt Q13796).
T6 construct: made in house; host or cells: E. coli (DH5alpha, BL21 or JM109)
The description is as above. The following applies: PDZ hAPXL, PDZ Domain 1. The method in brief: as §1

For assay [7], the target named is T7, PDZ protein (GST-PDZ fusion) (Homo sapiens, UniProt O14907).
T7 construct: made in house; host or cells: E. coli (DH5alpha, BL21 or JM109)
T7 sequence (O14907 1-124): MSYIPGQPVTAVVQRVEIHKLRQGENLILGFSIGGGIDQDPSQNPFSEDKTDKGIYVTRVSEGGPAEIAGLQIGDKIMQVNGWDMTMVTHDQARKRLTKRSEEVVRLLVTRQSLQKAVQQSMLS
The assay is described as above. The following applies: PDZ TIP1, PDZ Domain 1. The method, boiled down:
as §1

Assay [8] has as its target PDZ-domain polypeptide (GST/PDZ fusion protein). Briefly: Apparent affinity (Kd) by titration of PL peptide in the G assay. The method in brief: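 A fixed concentration of GST/PDZ fusion protein, 5 ug/ml by default, was mixed in solution with increasing labeled PL peptide (e.g. 0.1 uM-1 mM). Reaction times ranged from 10 minutes to 2 days at 4-37° C. Complexes were separated from free peptide and detected via the label as in the G assay, apparent affinity coming from the saturating concentration.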

Like-named read-outs stand apart in the source and are kept apart here. Peptide text beside a SMILES is read from it. * marks the point of attachment. Biotin = O=C1N[C@H]2[C@H](CS[C@H]2CCCCC(=O)*)N1

T5 sequence (Q14160 whole entry, the tested form may be a part): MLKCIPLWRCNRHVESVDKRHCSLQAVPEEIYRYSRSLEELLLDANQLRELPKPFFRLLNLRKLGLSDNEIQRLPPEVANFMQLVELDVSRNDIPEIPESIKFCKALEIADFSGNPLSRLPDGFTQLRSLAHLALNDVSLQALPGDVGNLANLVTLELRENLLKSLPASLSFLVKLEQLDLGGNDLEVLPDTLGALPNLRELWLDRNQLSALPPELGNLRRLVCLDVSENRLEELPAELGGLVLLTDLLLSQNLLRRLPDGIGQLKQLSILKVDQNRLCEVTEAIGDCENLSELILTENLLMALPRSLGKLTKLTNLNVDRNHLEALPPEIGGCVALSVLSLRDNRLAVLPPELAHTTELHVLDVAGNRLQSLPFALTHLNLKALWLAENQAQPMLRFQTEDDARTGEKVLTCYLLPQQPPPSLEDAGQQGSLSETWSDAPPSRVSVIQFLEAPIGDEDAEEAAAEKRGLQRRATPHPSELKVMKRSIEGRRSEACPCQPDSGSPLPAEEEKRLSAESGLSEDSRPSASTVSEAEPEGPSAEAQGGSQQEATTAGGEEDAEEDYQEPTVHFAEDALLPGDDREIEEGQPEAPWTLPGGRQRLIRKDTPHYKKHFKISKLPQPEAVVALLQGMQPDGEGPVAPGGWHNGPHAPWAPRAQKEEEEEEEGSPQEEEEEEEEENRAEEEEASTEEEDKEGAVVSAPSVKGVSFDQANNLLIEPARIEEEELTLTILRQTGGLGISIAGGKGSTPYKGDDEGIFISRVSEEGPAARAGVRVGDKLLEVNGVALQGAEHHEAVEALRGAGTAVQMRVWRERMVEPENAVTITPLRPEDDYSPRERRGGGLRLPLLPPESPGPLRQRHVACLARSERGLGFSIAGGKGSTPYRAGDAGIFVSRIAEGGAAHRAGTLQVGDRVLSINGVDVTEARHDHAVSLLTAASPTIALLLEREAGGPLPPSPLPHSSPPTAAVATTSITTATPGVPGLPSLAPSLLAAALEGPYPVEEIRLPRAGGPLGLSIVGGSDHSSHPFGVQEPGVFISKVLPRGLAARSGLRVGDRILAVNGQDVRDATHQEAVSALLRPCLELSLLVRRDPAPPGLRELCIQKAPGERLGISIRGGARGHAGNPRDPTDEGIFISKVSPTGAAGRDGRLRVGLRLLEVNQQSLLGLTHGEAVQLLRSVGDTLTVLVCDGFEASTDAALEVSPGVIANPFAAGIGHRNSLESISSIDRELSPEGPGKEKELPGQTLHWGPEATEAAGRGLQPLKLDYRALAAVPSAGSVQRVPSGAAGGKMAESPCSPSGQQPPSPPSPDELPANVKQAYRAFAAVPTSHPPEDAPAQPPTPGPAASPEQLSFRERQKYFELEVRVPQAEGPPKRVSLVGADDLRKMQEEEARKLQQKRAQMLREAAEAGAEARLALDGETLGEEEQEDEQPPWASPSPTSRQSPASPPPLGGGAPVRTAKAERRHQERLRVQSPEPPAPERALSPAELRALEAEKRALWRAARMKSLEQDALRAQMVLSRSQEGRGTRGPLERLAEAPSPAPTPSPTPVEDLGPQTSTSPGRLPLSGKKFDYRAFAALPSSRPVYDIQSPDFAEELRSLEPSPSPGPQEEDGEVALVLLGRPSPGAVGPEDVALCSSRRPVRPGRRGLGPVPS

Regarding `CC(C)C[C@H](NC(=O)[C@H](CC(=O)O)NC(=O)[C@H](CO)NC(=O)[C@H](CCC(=O)O)NC(=O)CNC(=O)[C@H](Cc1ccc(O)cc1)NC(=O)[C@H](CC(C)C)NC(=O)[C@H](C)NC(=O)[C@H](CO)NC(=O)[C@H](CO)NC(=O)[C@H](Cc1ccccc1)NC(=O)[C@H](C)NC(=O)[C@H](C)NC(=O)[C@H](Cc1ccc(O)cc1)NC(=O)[C@H](CC(=O)O)NC(=O)[C@H](CC(C)C)NC(=O)[C@H](C)NC(=O)CNC(=O)[C@@H]1CCCN1C(=O)[C@@H](NC(=O)CCCC[C@@H]1SC[C@@H]2NC(=O)N[C@@H]21)C(C)C)C(=O)O` [a-actinin 2] (Biotin-VPGALDYAAFSSALYGESDL-OH; C-terminus assumed), the Classification in assay [1] is 2 (A450 nm 1-2); in assay [2], 5 (A450 nm of 4 more than 2× repeated); in assay [3] (PDZ DLG1, PDZ Domain 1, 2), 1 (A450 nm 0-1); in assay [3] (PDZ DLG1, PDZ Domain 2), 1 (A450 nm 0-1); in assay [4] (PDZ Domain 3), 1 (A450 nm 0-1); in assay [5] (PDZ KIAA0147, PDZ Domain 1), 2 (A450 nm 1-2). The Classification was 3 (A450 nm 2-3) in assay [5] (PDZ KIAA0147, PDZ Domain 3); 5 (A450 nm of 4 more than 2× repeated) in assay [6]; 5 (A450 nm of 4 more than 2× repeated) in assay [7]. Further, the Kd in assay [8] (PDZ TAX IP2, PDZ Domain 1, titration of the PL peptide, read-out: Peptide Optimal Conc (Kd, dissociation constant)) stood at 2500 nM.
As to `CC[C@H](C)[C@H](NC(=O)[C@H](CCC(N)=O)NC(=O)[C@@H](NC(=O)[C@H](Cc1c[nH]cn1)NC(=O)[C@H](CCC(N)=O)NC(=O)[C@H](CC(=O)O)NC(=O)[C@H](CCC(=O)O)NC(=O)[C@H](CC(=O)O)NC(=O)[C@H](Cc1ccccc1)NC(=O)[C@@H]1CCCN1C(=O)[C@H](CCC(=O)O)NC(=O)[C@H](CC(N)=O)NC(=O)[C@H](CCC(=O)O)NC(=O)[C@@H]1CCCN1C(=O)[C@H](CC(=O)O)NC(=O)[C@H](CO)NC(=O)[C@H](CC(=O)O)NC(=O)CCCC[C@@H]1SC[C@@H]2NC(=O)N[C@@H]21)[C@@H](C)O)C(=O)N[C@H](C(=O)N[C@@H](CCCCN)C(=O)N[C@H](C(=O)O)C(C)C)[C@@H](C)O` [PTEN], the Classification in assay [1] is given as 1 (A450 nm 0-1); in assay [2], 2 (A450 nm 1-2); in assay [4] (PDZ Domain 8), 1 (A450 nm 0-1); in assay [7], 2 (A450 nm 1-2). Further, the Kd in assay [8] (PDZ SHANK, PDZ Domain 1, read-out: Peptide Optimal Conc (Kd by titration of the PL peptide)) stood at 1500 nM.

The values above are taken from patent publication US20050282743A1, “Molecular interactions in cells” (Arbor Vita Corporation, priority 2001, published 2005).
